Laboratory results taken from article PMC9511481 (Journal of Medicinal Chemistry, 2022).
pEC50: −log10 of the molar value. “And” between values parts separate entries of the source, which are not always exact repeats. Equal entries are not always repeated. Structures can show the parent of a compound that is named as a salt. Where two headings read alike, the source gives them in different places.

Key:
5-HT2AR [1] = target: T1, 5-HT2AR (Homo sapiens, UniProt P28223); test: cell-based; type: cell-based; details: for EC50: read-out: miniGαq EC50 (nM) [CI]
T1 construct: expressed in transfected cells; host or cells: HEK 293T (transient transfection)
Target sequence in this assay (P28223 whole entry): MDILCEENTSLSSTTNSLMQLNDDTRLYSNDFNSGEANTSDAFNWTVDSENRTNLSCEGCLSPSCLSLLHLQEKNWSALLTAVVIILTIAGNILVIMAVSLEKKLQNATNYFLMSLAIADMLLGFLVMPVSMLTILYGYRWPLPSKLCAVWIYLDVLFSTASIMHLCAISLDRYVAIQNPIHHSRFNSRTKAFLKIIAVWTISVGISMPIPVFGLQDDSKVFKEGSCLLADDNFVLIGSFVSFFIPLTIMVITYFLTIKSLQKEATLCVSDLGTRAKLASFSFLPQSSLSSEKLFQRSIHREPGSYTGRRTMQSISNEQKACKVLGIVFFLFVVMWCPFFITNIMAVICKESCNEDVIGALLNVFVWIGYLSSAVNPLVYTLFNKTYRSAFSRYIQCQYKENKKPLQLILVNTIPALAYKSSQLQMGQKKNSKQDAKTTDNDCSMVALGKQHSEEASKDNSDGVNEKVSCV

5-HT2AR [2] = target: T1, 5-HT2AR; test: cell-based; type: cell-based; details: for Emax: HEK-293T, read-out: β-arr2 Emax (%) [CI]
Target sequence in this assay (P32121 whole entry): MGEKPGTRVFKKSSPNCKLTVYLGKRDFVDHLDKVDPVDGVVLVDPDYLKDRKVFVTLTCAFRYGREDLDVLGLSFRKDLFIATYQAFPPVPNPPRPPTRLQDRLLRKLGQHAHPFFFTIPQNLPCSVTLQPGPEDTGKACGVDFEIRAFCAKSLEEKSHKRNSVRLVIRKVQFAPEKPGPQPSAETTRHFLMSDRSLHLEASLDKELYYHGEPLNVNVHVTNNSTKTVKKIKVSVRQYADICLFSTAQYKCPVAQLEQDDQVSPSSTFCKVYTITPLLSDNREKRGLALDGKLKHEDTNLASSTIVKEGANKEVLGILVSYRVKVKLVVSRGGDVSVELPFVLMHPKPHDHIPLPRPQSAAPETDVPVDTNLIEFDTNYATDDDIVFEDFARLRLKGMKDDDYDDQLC
Target sequence in this assay (P28223 whole entry): as the sequence (P28223 whole entry) above

5-HT2AR [3] = target: T1, 5-HT2AR; set-up: method as in PMID 32998000; details: wild-type 5-HT2AR; previously reported values; cited from earlier work
Target sequence in this assay (P28223 whole entry): as above

5-HT2AR [4] = target: T1, 5-HT2AR; set-up: method as in PMID 32998000; details: wild-type 5-HT2AR; previously reported values; cited from earlier work; remark: listed apart in the source
Target sequence in this assay (P32121 whole entry): as the sequence (P32121 whole entry) above
Target sequence in this assay (P28223 whole entry): as the sequence (P28223 whole entry) above

5-HT2AR [5] = tested on: 5-HT2AR; set-up: method as in PMID 35084960; details: partial agonist with bias toward βarr2 over Gαq-γ9, reference 5-HT; cited from earlier work
[6] = target: T2, 5-HT2AR S159A-mutated receptor (Homo sapiens, UniProt P28223, S159A); test: cell-based; type: cell-based; details: for EC50: read-out: β-arr2 EC50 (nM) [CI]
T2 construct: expressed in transfected cells; host or cells: HEK 293T (transient transfection); mutant made by site-directed mutagenesis of 5-HT2AR-LgBiT
Target sequence in this assay (P28223 whole entry S159A): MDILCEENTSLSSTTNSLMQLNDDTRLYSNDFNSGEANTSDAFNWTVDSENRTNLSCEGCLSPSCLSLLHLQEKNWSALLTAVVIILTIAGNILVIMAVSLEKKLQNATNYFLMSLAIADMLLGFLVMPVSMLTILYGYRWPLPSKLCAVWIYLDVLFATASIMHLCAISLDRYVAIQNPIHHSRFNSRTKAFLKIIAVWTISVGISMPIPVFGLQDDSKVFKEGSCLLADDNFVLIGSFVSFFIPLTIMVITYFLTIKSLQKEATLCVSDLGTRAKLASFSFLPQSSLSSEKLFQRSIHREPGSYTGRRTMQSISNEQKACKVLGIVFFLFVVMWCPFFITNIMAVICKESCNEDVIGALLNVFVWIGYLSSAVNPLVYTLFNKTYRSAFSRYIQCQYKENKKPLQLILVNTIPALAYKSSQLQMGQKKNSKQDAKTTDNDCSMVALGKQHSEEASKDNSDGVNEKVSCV
Target sequence in this assay (P32121 whole entry partner): as the sequence (P32121 whole entry) above

[7] = tested on: 5-HT2AR S159A-mutated receptor; test: Bias factor (βarr2 vs miniGαq recruitment), intrinsic relative activity approach, S159A mutated 5-HT2AR; type: cell-based, human; details: 5-HT2A-S159A; for β-factor: average of three experiments; for Alternative β-factor: from the combined EC50 and Emax values
Protocol: The resulting data were analyzed as described before in more detail.[55] In brief, the obtained time–luminescence profiles are corrected for interwell variability and used for the calculation of the area under the curve (AUC), from which the AUC of the corresponding solvent control is subtracted. Data are then normalized using GraphPad Prism software (San Diego, CA), where the maximal response of the reference agonist is arbitrarily set at 100%. After pooling the data of the individual experiments, the potency and efficacy values are calculated in GraphPad Prism through three parametric nonlinear regression analysis. To quantify the tendency of the measured substances toward preferentially inducing one pathway or the other, bias factors are calculated via the “intrinsic relative activity approach.[56],[57] In this approach, an RAi value is calculated for each substance in each of the measured assays, relative to a reference agonist, using the following formula [drawing 1] The obtained values for the respective pathways are then combined into a bias factor, βi [drawing 2] This formula implies that the value of βi for the reference agonist is 0. A positive bias factor indicates a preference toward the recruitment of βarr2 over miniGαq, compared to the respective reference agonist. A negative bias factor then points to a relative preference toward the recruitment of miniGαq over βarr2. To assess whether the obtained bias factors are statistically significant from 0, a Kruskal–Wallis analysis (which is the nonparametric counterpart of one-way analysis of variance (ANOVA), selected a priori to avoid presumptuous conclusions) with post hoc Dunn’s multiple comparison was carried out in GraphPad Prism. To qualitatively visualize the possible preference of a certain substance towards recruiting either one cytosolic protein or the other, bias plots were generated via GraphPad Prism. To this end, the normalized AUC values obtained in the βarr2 assay are plotted on the x-axis, and those obtained in the miniGαq assay are plotted on the y-axis. On each plot, both the respective reference agonist and one substance of interest are plotted, and a curve is fitted through the centered second-order (quadratic) polynomial fitting.[58]

5-HT2AR [8] = target: T1, 5-HT2AR; type: cell-based
Target sequence in this assay (P28223 whole entry): as the sequence (P28223 whole entry) above

[9] = target: T2, 5-HT2AR S159A-mutated receptor; test: cell-based; type: cell-based; details: for EC50: read-out: miniGαq EC50 (nM) [CI]; for Emax: read-out: miniGαq Emax (%) [CI]
Target sequence in this assay (P28223 whole entry S159A): as the sequence (P28223 whole entry S159A) above

[10] = tested on: 5-HT2AR S159A-mutated receptor; test: cell-based; type: cell-based, human
5-HT2AR [11] = details: 5-HT2AR S159A vs WT; ref 52 (Kim et al.); cited from earlier work
5-HT2AR over 5-HT2CR = details: cited from earlier work
[12] = read-out: β-arr2 EC50 (nM) [CI]

| Compound | EC50 (5-HT2AR [1]) | β-arr2 Emax (%) [CI] (5-HT2AR [2]) [%] | Emax (5-HT2AR [2]) [%] | EC50 (5-HT2AR [2]; [12]) | β-arr2 Emax (%) [CI] [6] | EC50 [9] | Reduction of agonist potency at 5-HT2AR S159A compared to WT, miniGαq recruitment assay [10] [fold] | Reduction of agonist potency at 5-HT2AR S159A compared to WT, βarr2 recruitment assay [6] | EC50 [6] | Alternative β-factor ([7]; referenced with 5-HT) | Alternative β-factor ([7]; referenced with LSD) | other results |
| --- | --- | --- | --- | --- | --- | --- | --- | --- | --- | --- | --- | --- |
| COc1cc(CCNCc2cccc3c2OCO3)c(OC)cc1C#N [6d, 4-(2-((Benzo[d][1,3]dioxol-4-ylmethyl)amino)ethyl)-2,5-dimethoxybenzonitrile Hydrochloride] | 45.1 nM and 47.3 nM | 106 | 114 | 17 nM and 17.1 nM |  |  |  |  |  |  |  |  |
| COc1cc(CCNCc2ccccc2OC)c(OC)cc1I [25I-NBOMe] |  |  |  |  |  |  |  |  |  |  |  | Emax, miniGαq assay (5-HT2AR [3]): 111–160%; Emax, βarr2 assay (5-HT2AR [4]): 135–141% |
| COc1cc(CCNCc2ccccc2OC)c(OC)cc1C#N [6b, 2,5-Dimethoxy-4-(2-((2-methoxybenzyl)amino)ethyl)benzonitrile Hydrochloride] | 6.7 nM and 6.71 nM and 6.53 nM | 148 | 161 | 1.9 nM and 1.93 nM and 1.94 nM |  |  |  |  |  |  |  |  |
| COc1ccccc1CCCN1CC[C@H]2[C@@H](C1)c1cccc3c1N2CCN3C [IHCH-7086] |  |  |  |  |  |  |  |  |  |  |  | Emax (5-HT2AR [5]): 13% |
| CCN(CC)C(=O)[C@@H]1C=C2c3cccc4[nH]cc(c34)C[C@H]2N(C)C1 [LSD, lysergic acid diethylamide, reference compound] |  | 90.7 | 99.7 |  | 99.9 [93.7–106] % and 128% |  |  |  |  |  |  | β-factor ([7]; relative to LSD): 0; β-factor ([7]; relative to serotonin (5-HT)): -0.533 |
| COc1cc(CCNC2COc3ccccc32)c(OC)cc1C#N (racemic) [(±)-6f, (±)-4-(2-((2,3-Dihydrobenzofuran-3-yl)amino)ethyl)-2,5-dimethoxybenzonitrile Hydrochloride] | 631 nM and 608 nM | 76.0 | 82.9 | 108 nM | 90.8 [81.9–101] % and 118% | 1650 nM | 2.6 | ~10 fold | 1020 nM and 1030 nM | 0.486 | 1.010 | Alternative β-factor (5-HT2AR [8]): 1.420 and 0.711; Bias judged from the bias plot, relative to LSD (5-HT2AR [8]): highly biased for βarr2 recruitment; Bias judged from the bias plot, relative to serotonin (5-HT2AR [8]): strong preference toward βarr2 recruitment; Difference in potency between the β-arr2 and miniGαq assays (5-HT2AR [8]): 6 fold |
| COc1cc(CCNC2CCOc3ccccc32)c(OC)cc1Br (racemic) [(±)-4d, (±)-N-(4-Bromo-2,5-dimethoxyphenethyl)chroman-4-amine Hydrochloride] | 174 nM and 168 nM | 108 | 121 | 132 nM and 134 nM |  |  |  |  |  |  |  |  |
| NCCc1c[nH]c2ccc(O)cc12 [5-HT, serotonin, reference compound] |  |  |  |  |  |  | 13 |  |  |  |  | Drop in efficacy in the S159A-mutated 5-HT2AR, miniGαq [10]: 173%; Drop in efficacy in the S159A-mutated 5-HT2AR, β-arr2 [6]: 33%; Change of efficacy with the S159A mutation, Gαq-dissociation BRET assay (5-HT2AR [11]): remained roughly unchanged; Decrease in potency with the S159A mutation, Gαq-dissociation BRET assay (5-HT2AR [11]): 157 fold; β-factor ([7]; relative to LSD): 0.550; β-factor ([7]; relative to serotonin (5-HT)): 0 |
| COc1cccc(CNCCc2cc(OC)c(Br)cc2OC)c1 [4b, 2-(4-Bromo-2,5-dimethoxyphenyl)-N-(3-methoxybenzyl)ethan-1-amine Hydrochloride] | 44.4 nM and 43.3 nM | 100 | 113 | 11.1 nM | 106 [97.5–114] % and 130% | 112 nM |  | 7 fold | 81.9 nM and 80.4 nM | 0.043 | 0.494 | pEC50 [9]: 6.93; miniGαq Emax (%) [CI] [9]: 44.7 [36.9–53.9] % and 81.0%; β-factor ([7]; relative to LSD): 0.565; β-factor ([7]; relative to serotonin (5-HT)): 0.102 |
| COc1cc(CCNCc2cccc(O)c2)c(OC)cc1Br [4a, 3-(((4-Bromo-2,5-dimethoxyphenethyl)amino)methyl)phenol Hydrochloride] | 48.8 nM and 46.9 nM | 98.9 | 112 | 11.1 nM | 89.8 [75.8–108] % and 110% | 154 nM and 156 nM | ~3 | approximately 15 fold | 172 nM and 175 nM | 0.096 | 0.566 | miniGαq Emax (%) [CI] [9]: 36.8%; Emax [9]: 21% |
| COc1cc(CCNCc2ccccc2F)c(OC)cc1C#N [6c, 4-(2-((2-Fluorobenzyl)amino)ethyl)-2,5-dimethoxybenzonitrile Hydrochloride] | 168 nM and 164 nM | 105 | 114 | 53.2 nM and 53.3 nM | 86.6 [81.5–92.0] % and 113% | 1130 nM | 7 | 12 fold | 661 nM and 645 nM | 0.237 | 0.842 | pEC50 [9]: 6.05; β-factor ([7]; relative to LSD): 0.731; β-factor ([7]; relative to serotonin (5-HT)): 0.186 |
| COc1cc(CCNCc2ccccc2O)c(OC)cc1I [25I-NBOH] |  |  |  |  |  |  |  |  |  |  |  | Emax, miniGαq assay (5-HT2AR [3]): 111–160%; Emax, βarr2 assay (5-HT2AR [4]): 135–141% |
| COc1cc(CCNC2COc3ccccc32)c(OC)cc1Br (racemic) [(±)-4c, (±)-N-(4-Bromo-2,5-dimethoxyphenethyl)-2,3-dihydrobenzofuran-3-amine Hydrochloride] | 23 nM | 85.5 | 96.6 |  |  |  |  |  |  |  |  | pEC50 (5-HT2AR [1]): 7.61; EC50 (5-HT2AR [2]; β-arr2 EC50 (nM) [CI]): 28.6 nM and 28.7 nM |
| COc1cc(CCNCc2cccc(O)c2)c(OC)cc1C#N [6e, 4-(2-((3-Hydroxybenzyl)amino)ethyl)-2,5-dimethoxybenzonitrile Hydrochloride] | 301 nM and 299 nM | 97.5 | 106 | 84.5 nM | 84.1% | 2060 nM | 6.9 | ~10 fold | 939 nM and 938 nM | 0.577 | 1.050 | miniGαq Emax (%) [CI] [9]: 22.9%; Emax [9]: 12.9%; Emax ([6]; read-out: β-arr2 Emax (%) [CI]): 68.2% |
| COc1cc(CC2CCCC(c3ccccc3OC)N2)c(OC)cc1Br [(S,S)-DMBMPP] |  |  |  |  |  |  |  |  |  |  |  | Selectivity over 5-HT2CR (5-HT2AR over 5-HT2CR): 124 fold |
